Data: patent publication US5447954A, “Phenylderivate as inhibitors of ATP citrate lyase” (SmithKline Beecham p.l.c., priority 1992, dated 1995)
Counter-ions that a name gives are not always drawn. Like-named read-outs stand apart in the source and are kept apart here.

What was measured:
[1] = biological target: T1, rat ATP citrate lyase (Rattus norvegicus, UniProt P16638); experiment: Assay of ATP Citrate lyase in the presence of inhibitors (rat enzyme); type: biochemical; settings: 100 μM citrate, pH 8.0, 25° C.
T1 construct: prior to removal of the livers; ATP Citrate lyase was prepared according to the method of Wraight et al; from tissue; host or cells: liver of male Wistar rats (fasted, then fed a high carbohydrate diet)
T1 sequence (P16638 1-1100): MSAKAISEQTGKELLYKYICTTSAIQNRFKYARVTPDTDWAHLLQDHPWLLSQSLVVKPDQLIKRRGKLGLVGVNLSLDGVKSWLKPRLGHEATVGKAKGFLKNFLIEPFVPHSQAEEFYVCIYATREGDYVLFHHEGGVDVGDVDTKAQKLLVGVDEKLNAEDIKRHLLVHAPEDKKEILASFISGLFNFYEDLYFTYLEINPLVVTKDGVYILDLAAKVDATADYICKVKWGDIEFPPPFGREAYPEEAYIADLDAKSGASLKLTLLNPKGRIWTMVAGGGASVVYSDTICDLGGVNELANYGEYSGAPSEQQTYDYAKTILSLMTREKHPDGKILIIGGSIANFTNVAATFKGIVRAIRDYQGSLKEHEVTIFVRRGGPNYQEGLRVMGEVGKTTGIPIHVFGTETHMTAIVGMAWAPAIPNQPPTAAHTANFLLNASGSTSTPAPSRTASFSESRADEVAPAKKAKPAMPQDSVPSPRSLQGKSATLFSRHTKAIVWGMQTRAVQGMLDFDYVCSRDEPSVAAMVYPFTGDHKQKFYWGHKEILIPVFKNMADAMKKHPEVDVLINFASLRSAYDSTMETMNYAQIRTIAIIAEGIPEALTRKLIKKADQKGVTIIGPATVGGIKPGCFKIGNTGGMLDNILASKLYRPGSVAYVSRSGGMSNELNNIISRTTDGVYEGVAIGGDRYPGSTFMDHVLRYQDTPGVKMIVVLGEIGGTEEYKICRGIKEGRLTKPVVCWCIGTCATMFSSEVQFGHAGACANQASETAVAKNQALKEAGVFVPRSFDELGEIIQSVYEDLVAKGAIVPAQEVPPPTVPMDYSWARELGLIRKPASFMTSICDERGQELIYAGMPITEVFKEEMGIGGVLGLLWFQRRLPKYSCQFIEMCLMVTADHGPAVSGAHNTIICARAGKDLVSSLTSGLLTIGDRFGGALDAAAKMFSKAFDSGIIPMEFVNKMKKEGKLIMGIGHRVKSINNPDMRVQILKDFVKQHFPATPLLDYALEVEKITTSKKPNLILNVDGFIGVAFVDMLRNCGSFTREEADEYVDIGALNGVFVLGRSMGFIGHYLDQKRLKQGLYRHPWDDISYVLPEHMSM
Experimental: 1. RAT ATP CITRATE LYASE (ACL) ASSAY
Purification of ATP Citrate lyase-human and rat enzymes
Male Wistar rats were fasted for 24 h, then fed on a high carbohydrate diet for 72 h prior to removal of the livers. ATP Citrate lyase was prepared according to the method of Wraight et al (Anal. Biochem., 1985, 144, 604-609) with modifications for large scale purification according to Wells (Eur. J. Biochem., 1991, 199, 163-168). Protein obtained by this method was pure as judged by SDS-PAGE.
Assay of ATP Citrate lyase in the presence of inhibitors
(§1) ATP Citrate lyase activity was assayed at 25° C. by reducing the oxaloacetate produced with malate dehydrogenase and NADH while monitoring at 340 nm using a Beckman DU50 spectrophotometer (according to the method of Linnet al (J. Biol. Chem., 1979, 254, 1691-1698)). Briefly, ATP citrate lyase (human or rat) was added to a 1 ml cuvette containing 50 mM Tris/HCl, pH=8.0, 0.2 mM NADH, 10 mM MgCl2, 10 mM KCl, 5 mM ATP, 200 μM coenzyme A, 10 mM dithiothreitol and malate dehydrogenase. An aqueous solution of inhibitor was added (for inhibitors which were insoluble in water, a stock solution was prepared in DMSO. However the final DMSO concentration in the cuvette was not allowed to exceed 1%.). Finally, tripotassium citrate was added to 100 μM final. This is Km for citrate (Wells et al (Eur. J. Biochem., 1992, 204, 249-255) and Houston et al (Biochim. Biophys. Acta, 1985, 844, 233-239)). Data analysis was performed using the curve fitting package Enzfitter (Elsevier Biosoft). For competitive inhibitors data was fitted to the equation
where v is the observed rate and I is the concentration of inhibitor added. Thus the dissociation constant Ki for the inhibitor could be found.

[2] = system: HepG2 cells; experiment: Effect of compounds on cholesterol (CL) and fatty acid (FA) synthesis in HepG2 cells; type: cell-based; settings: Homo sapiens; for activity at 1000 µM: Conc. 1000 μM; for activity at 30 µM: Conc. 30 μM; for activity at 3 µM: Conc. 3 μM; for activity at 10 µM: Conc. 10 μM
Experimental: 2. Measurement of effect of compounds on cholesterol (CL) and fatty acid (FA) synthesis in HepG2 Cells HepG2 cells were cultured in 24-well cell culture plates in DMEM (Dulbecco's Modified Eagle's Medium) containing Hepes (20 mM), bicarbonate (10 mM), glutamine (2 mM) and foetal calf serum (10% w/v). Once the cells had grown to between 80% and 90% confluence, the medium was replaced by DMEM without the addition of foetal calf serum and the cells incubated overnight. The rates of cholesterol and fatty acid synthesis were then measured by the addition of ^3 H2 O, to a specific radioactivity of 71 mCi/mmol, for the final 90 min of the incubation. Vehicle or test compound were added to the medium either 1.5 or 14.5 hr prior to the addition of ^3 H2 O to give the final desired concentration. Incubations were terminated and the rates of cholesterol and fatty acid synthesis determined from the amounts of ^3 H incorporated into cellular cholesterol and fatty acids as described previously (Berkhout et al.; Biochem J., 1990, 272, 181).

[3] = system: Sprague Dawley rat plasma cholesterol and triglyceride levels; experiment: Measurement of hyperlipidaemic activity in rats: plasma cholesterol and triglyceride levels; type: in vivo; settings: in diet at 0.125% (w:w) for 7 days
Experimental: (§2) 3. Measurement of hyperlipidaemic activity in rats and dogs
The compound of example 2 was administered to Spmgue Dawley rats in their diet at a concentration of 0.125% (w:w) for 7 days.

[4] = system: Beagle dog plasma cholesterol and triglyceride levels; experiment: Measurement of hyperlipidaemic activity in dogs: plasma cholesterol and triglyceride levels; type: in vivo; settings: male Beagle dogs; 25 mg/kg/day for 2 weeks
Experimental: as §2
25 (b) Dog The compound of example 2 was administered to male Beagle dogs at a level of 25 mg/kg/day for 2 weeks.

[5] = biological target: T2, human ATP citrate lyase (Homo sapiens, UniProt P53396); experiment: Assay of ATP Citrate lyase in the presence of inhibitors (human enzyme); type: biochemical; settings: 100 μM citrate, pH 8.0, 25° C.
T2 construct: made in house
T2 sequence (P53396 1-1101): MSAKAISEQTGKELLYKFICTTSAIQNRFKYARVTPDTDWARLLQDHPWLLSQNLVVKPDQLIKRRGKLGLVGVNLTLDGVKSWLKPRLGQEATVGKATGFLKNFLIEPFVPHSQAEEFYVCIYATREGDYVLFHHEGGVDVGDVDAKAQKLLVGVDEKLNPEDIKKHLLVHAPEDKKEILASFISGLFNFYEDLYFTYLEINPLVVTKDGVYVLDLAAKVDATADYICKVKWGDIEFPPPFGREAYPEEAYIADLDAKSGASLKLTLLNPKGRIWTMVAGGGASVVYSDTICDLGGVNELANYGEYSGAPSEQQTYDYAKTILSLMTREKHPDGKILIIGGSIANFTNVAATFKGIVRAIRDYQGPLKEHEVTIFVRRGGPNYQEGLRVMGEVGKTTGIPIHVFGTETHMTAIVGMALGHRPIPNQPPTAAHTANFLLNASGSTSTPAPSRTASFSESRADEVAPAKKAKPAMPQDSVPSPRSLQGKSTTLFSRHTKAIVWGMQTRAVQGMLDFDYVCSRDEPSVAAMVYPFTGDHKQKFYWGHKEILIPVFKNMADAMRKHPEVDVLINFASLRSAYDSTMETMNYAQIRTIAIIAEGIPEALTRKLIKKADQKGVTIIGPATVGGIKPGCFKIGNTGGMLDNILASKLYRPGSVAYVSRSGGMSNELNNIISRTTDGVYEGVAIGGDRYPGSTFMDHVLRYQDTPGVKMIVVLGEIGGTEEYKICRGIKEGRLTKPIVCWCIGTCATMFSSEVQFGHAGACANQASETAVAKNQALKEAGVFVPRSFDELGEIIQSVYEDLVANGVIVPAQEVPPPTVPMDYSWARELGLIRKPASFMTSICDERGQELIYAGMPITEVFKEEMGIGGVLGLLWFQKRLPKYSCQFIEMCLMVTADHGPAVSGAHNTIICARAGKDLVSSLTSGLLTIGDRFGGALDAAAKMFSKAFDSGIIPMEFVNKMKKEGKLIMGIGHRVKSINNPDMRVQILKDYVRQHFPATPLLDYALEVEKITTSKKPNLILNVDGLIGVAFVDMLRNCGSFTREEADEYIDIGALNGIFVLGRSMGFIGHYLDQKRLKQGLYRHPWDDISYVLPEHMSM
Experimental: as §1, with “Purification of ATP Citrate lyase-human and rat enzymes (ii) human enzyme Human ATP citrate lyase was prepared as described in European Journal of Biochemistry, 1992, 204, 491-99, with modifications for large scale purification according to Wells as referred to above. Protein obtained by this method was pure as judged by SDS-PAGE. Assay of ATP Citrate lyase in the presence of inhibitors ATP Citrate” for “ATP Citrate”, “method of […] al (J.” for “method of Linnet al (J.”, “(Elsevier Biosoft). […]” for “(Elsevier Biosoft). For competitive inhibitors data was fitted to the equation”

SMILES: O=C(O)C[C@](O)(C[C@@H](O)CCCCCCc1ccc(Cl)cc1Cl)C(=O)O (relative stereo) [Example 1, ±(3R*, 5S*) 3-Carboxy-11-(2,4-dichlorophenyl)-3,5-dihydroxyundecanoic acid, disodium salt]
- Ki [1]: 800 nM
- activity at 1000 µM ([2]; read-out: CL synthesis): 80 ± 6%
- activity at 1000 µM ([2]; read-out: FA synthesis): 123 ± 3%

SMILES: O=C(O)C[C@]1(O)C[C@H](CCCCCCc2ccc(Cl)cc2Cl)OC1=O (relative stereo) [Example 2, ±(3R*, 5S*) 3-Carboxymethyl-5-[6-(2,4-dichlorophenyl)hexyl]3-hydroxytetrahydrofuran-2-one]
- activity against ATP citrate lyase (rat) [1]: inactive
- activity at 30 µM ([2]; read-out: CL synthesis): 8 ± 3%
- activity at 30 µM ([2]; read-out: FA synthesis): 32 ± 3%
- reduction of plasma cholesterol levels [3]: 30%
- reduction of plasma triglyceride levels [3]: 64%
- reduction of plasma cholesterol levels [4]: 20-25%
- reduction of plasma triglyceride levels [4]: 20-25%

SMILES: O=C(O)[C@H](O)[C@@]1(O)C[C@@H](CCCCCCc2ccc(Cl)cc2Cl)OC1=O (relative stereo) [Example 11, ±(1'R*,3S*,5R*) 3-[Carboxy(hydroxy)methyl]-5-[6-(2,4-dichlorophenyl)hexyl]-3-hydroxytetrahydrofuran-2-one]
- activity at 3 µM ([2]; read-out: CL synthesis): 69 ± 13%
- activity at 3 µM ([2]; read-out: FA synthesis): 74 ± 11%
- activity at 10 µM ([2]; read-out: CL synthesis): 86 ± 29%
- activity at 10 µM ([2]; read-out: FA synthesis): 76 ± 13%

SMILES: O=C(O)C[C@](O)(C[C@@H](O)CCCCCCc1ccc(Cl)cc1Cl)C(=O)O (single isomer, unassigned) [Example 18, (+) (3R*,5S*) 3-Carboxy-11-(2,4-dichlorophenyl)-3,5-dihydroxyundecanoic acid, disodium salt]
- Ki [1]: 700 nM
- Ki [5]: 760 nM

SMILES: O=C(O)C[C@](O)(C[C@@H](O)CCCCCCc1ccc(Cl)cc1Cl)C(=O)O (single isomer, unassigned) [Example 20, (-) (3R*,5S*) 3-Carboxy-11-(2 4-dichlorophenyl)-3 5-dihydroxyundecanoic acid, disodium salt]
- Ki [1]: 700 nM
- Ki [5]: 690 nM
